Like-named read-outs stand apart in the source and are kept apart here.
Tests used:
[1] = MT-4 cytotoxicity assay; format: cell-based, human; conditions: human
Protocol: Biological Example 2: MT-4 Cytotoxicity Assay
The MT-4 cell line (HTLV-1 transformed, human T lymphoblastoid cells) was obtained from the NIH AIDS Reagent program (Bethesda, Md.). MT-4 cells were maintained in RPMI-1640 media (Thermo Fisher Scientific, Waltham, Mass.) supplemented with 10% fetal bovine serum, 100 Units/mL penicillin, and 100 μg/mL streptomycin. For the MT-4 cytotoxicity assay, 0.4 μL of serially diluted solutions of certain compounds disclosed herein were added to 40 μL of cell maintenance media in 384-well black, solid bottom plate using a Biomek FX workstation (Beckman Coulter, Brea, Calif.). Two thousand cells in 35 μL were added to each well using a Biotek uFlow Workstation (Biotek, Winooski, Vt.). Each assay plate contained 10 μM puromycin (final concentration) and 0.5% DMSO in RPMI-1640 media as positive and negative controls, respectively. Assay plates were incubated for five days at 37° C. in an incubator set at 5% CO2 and 90% humidity. After five days, 22 μL of Cell Titer Glo reagent (Promega, Madison, Wis.) was added to the assay plates with a Biotek uFlow Workstation. Plates were subsequently placed on an Envision Plate Reader (Perkin Elmer, Waltham, Mass.) for five minutes before the luminescence signal was read. CC50 values were defined as the compound concentration that caused a 50% decrease in luminescence signal, and were calculated by non-linear regression using Pipeline Pilot software by applying a four parameter fit equation (Accelrys, San Diego, Calif.) and are reported in the following Table 1.

[2] = test system: HBV-infected NTCP-HepG2 cells, secreted HBsAg; assay: microbe, parasite or virus in culture; format: cell-based, hepatitis B virus (genotype D, AD38-derived); conditions: secreted HBsAg in supernatant after 5 days, geometric mean of minimum four determinations, read-out: NTCP HBsAg EC50
Protocol: NTCP-HepG2 Antiviral Assay for Secreted HBsAg
HepG2 cells stably expressing sodium-taurocholate cotransporting polypeptide (NTCP-HepG2) were grown in Dulbecco's Modified Eagle Medium (DMEM) without sodium pyruvate (Thermo Fisher Scientific, Waltham, Mass.) supplemented with 10% fetal bovine serum, 2 mM L-glutamine, 1% penicillin/streptomycin, and 0.25 mg/mL G-418. NTCP-HepG2 cells were infected with 4000 genome equivalent per cell of genotype D (AD38-derived) HBV in DMEM without sodium pyruvate (Thermo Fisher Scientific, Waltham, Mass.) supplemented with 2% fetal bovine serum, 2 mM L-glutamine, 1% penicillin/streptomycin, 2.5% DMSO, and 4% PEG 8000 (Promega, Madison, Wis.). After 24-hour incubation, cells were washed three times with OptiMEM (Thermo Fisher Scientific, Waltham, Mass.) and fed with fresh DMEM without sodium pyruvate (Thermo Fisher Scientific, Waltham, Mass.) supplemented with 2% fetal bovine serum, 2 mM L-glutamine, 1% penicillin/streptomycin, and 2.5% DMSO. At 4 days after infection, infected NTCP-HepG2 cells were seeded on 384-well plates pre-coated with collagen at a density of 20000 cells per well containing serially diluted compounds of the present disclosure or DMSO (0.5%) in a final volume of 80 μl of DMEM without sodium pyruvate (Thermo Fisher Scientific, Waltham, Mass.) supplemented with 2% fetal bovine serum, 2 mM L-glutamine, 1% penicillin/streptomycin, and 1% DMSO. After an incubation time of 5 days, cell culture supernatant was collected and measured for HBsAg.
Secreted HBsAg in the supernatant were measured using a multiplex chemiluminescent MSD assay (Meso Scale Discovery, Rockville, Md.) using capture and detection antibody pairs specific for HBsAg. The EC50 values were calculated from the fit of the dose-response curves to a four-parameter equation. All EC50 values represent geometric mean values of a minimum of four determinations.

[3] = five days, Cell Titer Glo luminescence, read-out: MT-4 CC50

Row | SMILES | CC50 at 5 days [1, 3] | EC50 [2] | EC50 ([2]; Hepatitis B virus, 120 h) | CC50 at 5 days ([1]; MT-4 CC50)
1 | COCCCOc1cc2c(cc1Cl)-c1cc(=O)c(C(=O)O)cn1[C@H]1[C@H]2CCC1(C)C (racemic) [Example 31, trans-10-Chloro-11-(3-methoxypropoxy)-3,3-dimethyl-7-oxo-1,2,3,3a,7,12b-hexahydrocyclopenta[c]pyrido[2,1-a]isoquinoline-6-carboxylic acid] | > 10000 nM | 6.4 nM | – | –
2 | COCCCOc1cc2c(cc1Cl)-c1cc(=O)c(C(=O)O)cn1N1CCC[C@H]21 (single isomer, unassigned) [Example 2] | 3900 nM | – | 110 nM | –
3 | COCCCOc1cc2c(cc1Cl)-c1cc(=O)c(C(=O)O)cn1N1CCC[C@@H]21 (single isomer, unassigned) [Example 3] | 9100 nM | – | > 1000 nM | –
4 | COCCCOc1cc2c(cc1Cl)-c1cc(=O)c(C(=O)O)cn1N1[C@H]2CCC1(C)C (single isomer, unassigned) [Example 6] | > 10000 nM | – | 300 nM | –
5 | COCCCOc1cc2c(cc1Cl)-c1cc(=O)c(C(=O)O)cn1N1[C@H](C)CC[C@H]21 (single isomer, unassigned) [Example 7] | > 10000 nM | – | 32 nM | –
6 | COCCCOc1cc2c(cc1Cl)-c1cc(=O)c(C(=O)O)cn1N1[C@@H](C)CC[C@@H]21 (single isomer, unassigned) [Example 8] | > 10000 nM | – | 200 nM | –
7 | COCCCOc1cc2c(cc1Cl)-c1cc(=O)c(C(=O)O)cn1N1[C@H](C)CC[C@@H]21 (single isomer, unassigned) [Example 9] | > 10000 nM | – | 45 nM | –
8 | COCCCOc1cc2c(cc1Cl)-c1cc(=O)c(C(=O)O)cn1N1[C@@H]2CC[C@@H]1C (single isomer, unassigned) [Example 10] | > 10000 nM | – | 5.7 nM | –
9 | COCCCOc1cc2c(cc1Cl)-c1cc(=O)c(C(=O)O)cn1N1[C@@H]2CCCC1(C)C (single isomer, unassigned) [Example 12] | 8800 nM | – | 2.5 nM | –
10 | COCCCOc1cc2c(cc1Cl)-c1cc(=O)c(C(=O)O)cn1N1[C@H]2CCCC1(C)C (single isomer, unassigned) [Example 13] | > 10000 nM | – | 34 nM | –
11 | COCCCOc1cc2c(cc1OC(F)F)-c1cc(=O)c(C(=O)O)cn1N1[C@@H]2CCC1(C)C (single isomer, unassigned) [Example 19] | > 10000 nM | – | 1.2 nM | –
12 | COCCCOc1cc2c(cc1OC(F)F)-c1cc(=O)c(C(=O)O)cn1N1[C@H]2CCC1(C)C (single isomer, unassigned) [Example 20] | > 10000 nM | – | 43 nM | –
13 | COCCCOc1cc2c(cc1Cl)-c1cc(=O)c(C(=O)O)cn1N1CC(C)(C)C[C@H]21 (single isomer, unassigned) [Example 29] | > 10000 nM | – | 14 nM | –
14 | COCCCOc1cc2c(cc1Cl)-c1cc(=O)c(C(=O)O)cn1N1CC(C)(C)C[C@@H]21 (single isomer, unassigned) [Example 30] | > 10000 nM | – | 10 nM | –
15 | COCCCOc1cc2c(cc1Cl)-c1cc(=O)c(C(=O)O)cn1[C@@H]1[C@H]2CCC1(C)C (single isomer, unassigned) [Example 34] | > 10000 nM | – | 220 nM | –
16 | COCCCOc1cc2c(cc1Cl)-c1cc(=O)c(C(=O)O)cn1[C@H]1[C@H]2CCC1(C)C (single isomer, unassigned) [Example 35] | > 10000 nM | – | 49 nM | –
17 | COCCCOc1cc2c(cc1Cl)-c1cc(=O)c(C(=O)O)cn1[C@@H]1[C@@H]2CCC1(C)C (single isomer, unassigned) [Example 36] | > 10000 nM | – | 170 nM | –
18 | COCCCOc1cc2c(cc1Cl)-c1cc(=O)c(C(=O)O)cn1N1[C@H]2COCC1(C)C (single isomer, unassigned) [Example 39] | > 10000 nM | – | 680 nM | –
19 | COCCCOc1cc2c(cc1Cl)-c1cc(=O)c(C(=O)O)cn1N1CCC(C)(C)[C@H]21 (single isomer, unassigned) [Example 47] | 1700 nM | – | 16 nM | –
20 | COCCCOc1cc2c(cc1Cl)-c1cc(=O)c(C(=O)O)cn1N1CCC(C)(C)[C@@H]21 (single isomer, unassigned) [Example 48] | 2200 nM | – | > 1000 nM | –
21 | COCCCOc1cc2c(cc1Cl)-c1cc(=O)c(C(=O)O)cn1N1[C@@H]2COCC1(C)C (single isomer, unassigned) [Example 51] | > 10000 nM | – | 2.9 nM | –
22 | COCCCOc1cc2c(cc1OC)-c1cc(=O)c(C(=O)O)cn1N1[C@@H]2CCCC1(C)C (single isomer, unassigned) [Example 52] | > 10000 nM | – | 0.91 nM | –
23 | COCCCOc1cc2c(cc1OC)-c1cc(=O)c(C(=O)O)cn1N1[C@H]2CCCC1(C)C (single isomer, unassigned) [Example 53] | 9700 nM | – | 9.1 nM | –
24 | COCCCOc1cc2c(cc1Cl)-c1cc(=O)c(C(=O)O)cn1N1[C@@H]2CCC12CC2 (single isomer, unassigned) [Example 56] | – | – | 1.5 nM | > 10000 nM
25 | COCCCOc1cc2c(cc1Cl)-c1cc(=O)c(C(=O)O)cn1N1[C@H]2CCC12CC2 (single isomer, unassigned) [Example 57] | – | – | > 1000 nM | > 10000 nM
26 | COCC12CC(COc3cc4c(cc3OC(F)F)-c3cc(=O)c(C(=O)O)cn3N3[C@@H]4CCC3(C)C)(C1)C2 [Compound 105, (R)-11-(difluoromethoxy)-12-((3-(methoxymethyl)bicyclo[1.1.1]pentan-1-yl)methoxy)-3,3-dimethyl-8-oxo-2,3,8,13b-tetrahydro-1H-pyrido[2,1-a]pyrrolo[1,2-c]phthalazine-7-carboxylic acid] | > 10000 nM | – | 1.4 nM | –
27 | CC1(C)CC[C@@H]2c3cc(C#Cc4ccc(N)nc4)c(OC(F)F)cc3-c3cc(=O)c(C(=O)O)cn3N21 [Compound 106, (R)-12-((6-aminopyridin-3-yl)ethynyl)-11-(difluoromethoxy)-3,3-dimethyl-8-oxo-2,3,8,13b-tetrahydro-1H-pyrido[2,1-a]pyrrolo[1,2-c]phthalazine-7-carboxylic acid] | 7500 nM | – | 0.37 nM | –
28 | COCc1cc2c(cc1OCC13CC(C#N)(C1)C3)[C@H]1CCC3(CC3)N1n1cc(C(=O)O)c(=O)cc1-2 [Compound 107, (R)-12′-((3-cyanobicyclo[1.1.1]pentan-1-yl)methoxy)-11′-(methoxymethyl)-8′-oxo-1′,2′,8′,13b′-tetrahydrospiro[cyclopropane-1,3′-pyrido[2,1-a]pyrrolo[1,2-c]phthalazine]-7′-carboxylic acid] | – | – | 5.9 nM | 7800 nM
29 | COCCOCc1cc2c(cc1OC(F)F)-c1cc(=O)c(C(=O)O)cn1N1[C@@H]2CCC1(C)C [Compound 108, (R)-11-(difluoromethoxy)-12-((2-methoxyethoxy)methyl)-3,3-dimethyl-8-oxo-2,3,8,13b-tetrahydro-1H-pyrido[2,1-a]pyrrolo[1,2-c]phthalazine-7-carboxylic acid] | > 10000 nM | – | 16.8 nM | –
30 | COCc1cc2c(cc1OCC1(COC)CC1)[C@H]1CCC(C)(C)N1n1cc(C(=O)O)c(=O)cc1-2 [Compound 109, (R)-11-(methoxymethyl)-12-((1-(methoxymethyl)cyclopropyl)methoxy)-3,3-dimethyl-8-oxo-2,3,8,13b-tetrahydro-1H-pyrido[2,1-a]pyrrolo[1,2-c]phthalazine-7-carboxylic acid] | > 10000 nM | – | 13.2 nM | –

From US10442804B2, “Compounds for the treatment of hepatitis B virus infection” (Gilead Sciences, Inc., priority 2017, dated 2019)
